Assay results published in paper PMC4672351, “Drug-Drug Interaction Potentials of Tyrosine Kinase Inhibitors via Inhibition of UDP-Glucuronosyltransferases” (Scientific Reports, 2015).

Assays:
UGT2B15 = target: T1, UGT2B15 (Homo sapiens, UniProt P54855); experiment: Inhibition of 4-MU glucuronidation by recombinant UGT2B15; settings: recombinant UGT2B15, pH 7.4, probe 4-MU
T1 sequence (P54855 24-530): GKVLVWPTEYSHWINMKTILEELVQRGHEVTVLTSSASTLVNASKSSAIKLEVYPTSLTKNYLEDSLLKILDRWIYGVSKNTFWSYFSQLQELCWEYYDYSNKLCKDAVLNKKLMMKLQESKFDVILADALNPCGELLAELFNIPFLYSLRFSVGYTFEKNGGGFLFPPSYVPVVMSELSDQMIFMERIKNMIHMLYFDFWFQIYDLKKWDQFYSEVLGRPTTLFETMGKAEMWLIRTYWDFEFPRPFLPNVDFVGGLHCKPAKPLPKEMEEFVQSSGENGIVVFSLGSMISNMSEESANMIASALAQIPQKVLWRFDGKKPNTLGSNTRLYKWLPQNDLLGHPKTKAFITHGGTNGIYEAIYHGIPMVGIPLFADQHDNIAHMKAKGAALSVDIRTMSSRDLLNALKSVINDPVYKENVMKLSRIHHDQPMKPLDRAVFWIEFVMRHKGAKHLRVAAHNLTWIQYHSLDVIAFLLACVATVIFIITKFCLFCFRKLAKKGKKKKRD

UGT2B7 = target: T2, UGT2B7 (Homo sapiens, UniProt P16662); experiment: Inhibition of 4-MU glucuronidation by recombinant UGT2B7; settings: recombinant UGT2B7, pH 7.4, probe 4-MU
T2 sequence (P16662 24-529): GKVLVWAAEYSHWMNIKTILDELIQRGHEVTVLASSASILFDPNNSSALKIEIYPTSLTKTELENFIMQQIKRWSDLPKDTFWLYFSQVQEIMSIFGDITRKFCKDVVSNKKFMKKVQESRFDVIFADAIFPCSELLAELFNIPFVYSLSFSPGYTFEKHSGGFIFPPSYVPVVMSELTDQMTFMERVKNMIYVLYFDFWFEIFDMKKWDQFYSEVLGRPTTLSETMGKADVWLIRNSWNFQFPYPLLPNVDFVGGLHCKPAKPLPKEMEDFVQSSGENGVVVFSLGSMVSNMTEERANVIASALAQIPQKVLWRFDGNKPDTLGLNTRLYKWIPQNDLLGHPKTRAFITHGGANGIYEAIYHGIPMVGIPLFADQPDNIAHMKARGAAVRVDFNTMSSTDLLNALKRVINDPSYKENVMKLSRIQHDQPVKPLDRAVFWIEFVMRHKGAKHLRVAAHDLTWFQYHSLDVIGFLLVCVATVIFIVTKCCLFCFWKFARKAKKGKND

UGT1A9 = target: T3, UGT1A9 (Homo sapiens, UniProt O60656); experiment: in vitro; settings: recombinant UGT1A9, pH 7.4, probe 4-MU
T3 sequence (O60656 26-530): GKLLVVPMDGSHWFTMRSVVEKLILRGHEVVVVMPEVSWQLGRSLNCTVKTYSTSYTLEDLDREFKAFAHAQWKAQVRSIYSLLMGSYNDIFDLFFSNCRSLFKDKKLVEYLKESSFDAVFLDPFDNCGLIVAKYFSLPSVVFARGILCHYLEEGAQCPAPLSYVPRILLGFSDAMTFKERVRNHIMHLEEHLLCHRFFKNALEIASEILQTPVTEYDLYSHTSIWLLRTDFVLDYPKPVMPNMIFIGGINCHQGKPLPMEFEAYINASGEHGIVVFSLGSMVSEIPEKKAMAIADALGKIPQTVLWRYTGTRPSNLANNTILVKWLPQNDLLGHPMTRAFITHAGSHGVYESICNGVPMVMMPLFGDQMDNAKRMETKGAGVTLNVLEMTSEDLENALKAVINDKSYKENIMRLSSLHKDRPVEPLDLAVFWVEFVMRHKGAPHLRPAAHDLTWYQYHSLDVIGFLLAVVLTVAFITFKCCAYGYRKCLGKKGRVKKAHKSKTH

UGT2B4 = target: T4, UGT2B4 (Homo sapiens, UniProt P06133); experiment: Inhibition of 4-MU glucuronidation by recombinant UGT2B4; assay type: in vitro ADME; settings: recombinant UGT2B4, pH 7.4, probe 4-MU, 100 μM inhibitor, 4-MU substrate, read-out: Remaining activities (%) of UGT2B4
T4 construct: purchased BD Gentest (Woburn, MA); host or cells: baculovirus-infected insect cells
T4 sequence (P06133 24-528): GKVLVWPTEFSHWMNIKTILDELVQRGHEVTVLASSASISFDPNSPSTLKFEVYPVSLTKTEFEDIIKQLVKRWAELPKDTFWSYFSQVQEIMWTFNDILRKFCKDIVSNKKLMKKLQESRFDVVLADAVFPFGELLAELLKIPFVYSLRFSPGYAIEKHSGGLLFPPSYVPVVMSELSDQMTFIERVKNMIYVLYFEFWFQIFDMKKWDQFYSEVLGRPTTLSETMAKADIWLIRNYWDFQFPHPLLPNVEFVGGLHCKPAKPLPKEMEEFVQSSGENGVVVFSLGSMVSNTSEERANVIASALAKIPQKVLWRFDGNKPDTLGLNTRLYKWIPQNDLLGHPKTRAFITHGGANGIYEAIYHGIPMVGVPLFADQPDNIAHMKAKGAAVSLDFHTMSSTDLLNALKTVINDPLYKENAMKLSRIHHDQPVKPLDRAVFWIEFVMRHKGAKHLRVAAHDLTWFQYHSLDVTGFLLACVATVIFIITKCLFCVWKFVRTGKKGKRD

UGT1A10 = target: T5, UGT1A10 (Homo sapiens, UniProt Q9HAW8); experiment: Inhibition of 4-MU glucuronidation by recombinant UGT1A10; settings: recombinant UGT1A10, pH 7.4, probe 4-MU
T5 sequence (Q9HAW8 26-530): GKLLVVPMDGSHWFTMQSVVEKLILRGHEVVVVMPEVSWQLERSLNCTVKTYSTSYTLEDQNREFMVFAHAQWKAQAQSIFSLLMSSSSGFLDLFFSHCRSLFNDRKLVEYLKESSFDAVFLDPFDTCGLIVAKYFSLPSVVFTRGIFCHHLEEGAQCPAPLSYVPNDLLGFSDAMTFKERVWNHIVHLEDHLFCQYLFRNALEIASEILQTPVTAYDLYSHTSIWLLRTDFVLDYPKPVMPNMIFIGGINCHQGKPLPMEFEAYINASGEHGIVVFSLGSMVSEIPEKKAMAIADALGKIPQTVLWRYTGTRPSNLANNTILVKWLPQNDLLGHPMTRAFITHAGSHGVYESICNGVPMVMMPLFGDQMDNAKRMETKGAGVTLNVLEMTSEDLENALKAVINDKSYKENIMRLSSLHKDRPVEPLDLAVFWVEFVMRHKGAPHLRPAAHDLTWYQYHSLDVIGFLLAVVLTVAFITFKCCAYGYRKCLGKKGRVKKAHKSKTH

| SMILES | activity at 120 min, 100 µM (UGT2B15) [%] | activity at 120 min, 100 µM (UGT2B7) [%] | activity at 30 min, 100 µM (UGT1A9) [%] | activity at 120 min, 100 µM (UGT2B4) [%] | activity at 120 min, 100 µM (UGT1A10) [%] |
| --- | --- | --- | --- | --- | --- |
| CS(=O)(=O)CCNCc1ccc(-c2ccc3ncnc(Nc4ccc(OCc5cccc(F)c5)c(Cl)c4)c3c2)o1 [Lapatinib, lapatinib] | 110 ± 3.1 | 90.5 ± 1 | 51.1 ± 7.9 | 105.1 ± 0.2 | 73.6 ± 4.8 |
| COc1cc2c(Nc3ccc(Br)cc3F)ncnc2cc1OCC1CCN(C)CC1 [Vandetanib, vandetanib] | 79.2 ± 1.4 | 49.8 ± 3.7 | 14.1 ± 4.7 | 80.8 ± 6.6 | 49 ± 0.4 |
| CNC(=O)c1ccccc1Sc1ccc2c(/C=C/c3ccccn3)n[nH]c2c1 [Axitinib, axitinib] | 49.3 ± 5.2 | 55.9 ± 9.7 | 44.8 ± 0.2 | 42.1 ± 1.6 | 55.5 ± 2.7 |
